Assay results as given in US4002530A, “6-Aminopenicillanic acid derivative” (Recherche et Industrie Therapeutiques (R.I.T.), priority 1975, dated 1977).
In brackets after ≈: the same amount, converted by molar mass. Where a name gives a salt, the structure may show the parent alone. Read-outs that look alike come from different tables or passages of the source.

What was measured:
[1] = tested on: Gram-positive and Gram-negative bacteria; test: inhibitory activity against growth of bacteria; type: cell-based; conditions: for inhibitory activity against the growth of bacteria: Gram-positive and Gram-negative bacteria
Procedure: (§1) Antibiotic RIT D-2214 has been tested in form of the mono ammonium salt in position 3 of the penam nucleus and, for that reason, is herein below charcterized as this monoammonium salt.
(§2) The inhibitory levels were determined by the broth dilution test. A series of tubes containing varied concentrations of the monoammonium salt of antibiotic RIT D-2214 were inoculated with the test organism to determine the minimum concentration of the ammonium salt of antibiotic RIT D-2214 in mcg/ml. in the broth substrate which inhibited organism growth for a period of about twenty hours at 35° C.

physchem = type: physicochemical; conditions: for half-life: reconstituted gastric juice, pH 1.3
From the text: Antibiotic RIT D-2214 can be colorimetrically assayed by the classical hydroxylamine method of penicillin assay. […] Recoveries were estimated according to the hydroxylamine assay method.

Corynebacterium xerosis = test: broth dilution test, minimum inhibitory concentration; type: cell-based; conditions: about 20 hours at 35° C, tested as monoammonium salt
Shigella sonnei = test: as above; type: cell-based; conditions: about 20 hours at 35° C, tested as monoammonium salt
Procedure: as §1, §2

Staphylococcus aureus = test: as above; type: cell-based; conditions: about 20 hours at 35° C, tested as monoammonium salt
Procedure: as §1, §2

[2] = tested on: Staphylococcus aureus Pen.resist.; test: as above; type: cell-based; conditions: penicillin resistant, about 20 hours at 35° C, tested as monoammonium salt
Bacillus subtilis = test: as above; type: cell-based; conditions: about 20 hours at 35° C, tested as monoammonium salt
Escherichia coli = test: as above; type: cell-based; conditions: 20 h, read-out: Minimum Inhibitory concentration
E. coli Pen. resistant = test: as above; type: cell-based; conditions: Escherichia coli, penicillin resistant, about 20 hours at 35° C, tested as monoammonium salt
Alcaligenes faecalis = test: as above; type: cell-based; conditions: about 20 hours at 35° C, tested as monoammonium salt
Aerobacter aerogenes = test: as above; type: cell-based; conditions: Klebsiella aerogenes, 20 h, read-out: Minimum Inhibitory concentration
Klebsiella pneumoniae = test: as above; type: cell-based; conditions: about 20 hours at 35° C, tested as monoammonium salt
Salmonella paratyphi = test: as above; type: cell-based; conditions: Salmonella enterica, 20 h, read-out: Minimum Inhibitory concentration
Salmonella meleagridis = test: as above; type: cell-based; conditions: about 20 hours at 35° C, tested as monoammonium salt
Salmonella typhi = test: as above; type: cell-based; conditions: Salmonella enterica, 20 h, read-out: Minimum Inhibitory concentration
Salmonella typhimurium = test: as above; type: cell-based; conditions: Salmonella enterica, about 20 hours at 35° C, tested as monoammonium salt
Salmonella panama = test: as above; type: cell-based; conditions: Salmonella enterica, about 20 hours at 35° C, tested as monoammonium salt
Salmonella anatum = test: as above; type: cell-based; conditions: Salmonella enterica, about 20 hours at 35° C, tested as monoammonium salt
Proteus mirabilis = test: as above; type: cell-based; conditions: 20 h, read-out: Minimum Inhibitory concentration
Proteus morganii = test: as above; type: cell-based; conditions: Morganella morganii, about 20 hours at 35° C, tested as monoammonium salt
Vibrio el tor = test: as above; type: cell-based; conditions: about 20 hours at 35° C, tested as monoammonium salt
Brucella abortus = test: microbe, parasite or virus in culture; type: cell-based; conditions: 20 h, read-out: Minimum Inhibitory concentration
[3] = tested on: Bordetella bronchiseptica; test: broth dilution test, minimum inhibitory concentration; type: cell-based; conditions: about 20 hours at 35° C, tested as monoammonium salt
Pseudomonas aeruginosa = test: as above; type: cell-based; conditions: about 20 hours at 35° C, tested as monoammonium salt
Escherichia coli 47 = test: mice protection test; type: in vivo; conditions: Escherichia coli, 47, sc, 72 h; s.c., one hour after intravenous infection, observed 3 days; read-out: ED50 (total dose required to protect 50% of the infected mice)
Procedure: (§3) Comparative trials with ampicillin were performed in vivo according to the usual mice protection test procedure. The test compound was administered in graded dilutions to mice either subcutaneously (s.c.) in water or orally (or.) in combination with calcium carbonate one hour after intravenous infection with uniformly lethal doses of the test organism.

Escherichia coli 9 = test: mice protection test; type: in vivo; conditions: Escherichia coli, 9, sc, 72 h; s.c., one hour after intravenous infection, observed 3 days; read-out: ED50 (total dose required to protect 50% of the infected mice)
Procedure: as §3

[4] = tested on: Klebsiella pneumoniae SK&F 4200; test: mice protection test; type: in vivo; conditions: 72 h, one hour after intravenous infection, observed 3 days, read-out: ED50 (total dose required to protect 50% of the infected mice)
Procedure: as §3

Proteus mirabilis 11 = test: mice protection test; type: in vivo; conditions: Proteus mirabilis, 11, sc, 72 h; s.c., one hour after intravenous infection, observed 3 days; read-out: ED50 (total dose required to protect 50% of the infected mice)
Procedure: as §3

[5] = tested on: Salmonella brandebourg 22; test: mice protection test; type: in vivo; conditions: Salmonella, 22, sc, 72 h; s.c., one hour after intravenous infection, observed 3 days; read-out: ED50 (total dose required to protect 50% of the infected mice)
Procedure: as §3

[6] = tested on: Salmonella enteritidis 24; test: mice protection test; type: in vivo; conditions: Salmonella enterica, sc, 72 h, s.c., one hour after intravenous infection, observed 3 days, read-out: ED50 (total dose required to protect 50% of the infected mice)
Procedure: as §3

Salmonella panama 20 = test: mice protection test; type: in vivo; conditions: Salmonella enterica, 20, sc, 72 h; s.c., one hour after intravenous infection, observed 3 days; read-out: ED50 (total dose required to protect 50% of the infected mice)
Procedure: as §3

Shigella flexneri 25 = test: mice protection test; type: in vivo; conditions: Shigella flexneri, 25, sc, 72 h; s.c., one hour after intravenous infection, observed 3 days; read-out: ED50 (total dose required to protect 50% of the infected mice)
Procedure: as §3

[7] = tested on: Staphylococcus aureus 663; test: mice protection test; type: in vivo; conditions: Staphylococcus aureus, 663, sc, 72 h; s.c., one hour after intravenous infection, observed 3 days; read-out: ED50 (total dose required to protect 50% of the infected mice)
Procedure: as §3

[8] = tested on: Vibrio parahaemoliticus 194; test: mice protection test; type: in vivo; conditions: Vibrio, 194, 72 h; oral with calcium carbonate, one hour after intravenous infection, observed 3 days; read-out: ED50 (total dose required to protect 50% of the infected mice)
Procedure: as §3

in vivo [9] = test: in vivo; set-up: species or system mice; conditions: mouse, sc, 20 mg/kg
From the text: (§4) Plasma samples were adequately diluted with sterile water and assayed according to the usual agar diffusion method, using Bacillus subtilis ATCC 6633 as the test organism.

in vivo [10] = test: in vivo; set-up: species or system rats; conditions: rat, sc, 20 mg/kg
From the text: as §4

in vivo [11] = test: in vivo; set-up: species or system dogs; conditions: dog, sc, 20 mg/kg
From the text: as §4

[12] = stability in water solution; type: physicochemical; conditions: 4° C, not more than 7 days
[13] = tested on: Staphylococcal preparation of β-lactamase; test: destruction by Staphylococcal preparation of β-lactamase (Penase Leo); type: biochemical
[14] = tested on: Gram-positive and Gram-negative microorganisms; test: in vivo activity against microorganisms; set-up: species or system mice
Procedure: as §3

Alcaligenes viscolactis = test: agar-diffusion method; type: cell-based
From the text: The testing of samples can be carried out by the well known agar-diffusion method on Petri dishes or on plates.

## CC1(C)S[C@@H]2[C@H](NC(=O)CSC[C@H](N)C(=O)O)C(=O)N2[C@H]1C(=O)O
[1]
  inhibitory activity against the growth of bacteria: active against Grampositive and negative bacteria
[1]; compared with the RIT 2214 form named in the sentence
  antibacterial activity relative to another RIT 2214 form: less than the monoammonium salt of RIT D-2214

## CC1(C)S[C@@H]2[C@H](NC(=O)Cc3ccccc3)C(=O)N2[C@H]1C(=O)O [penicillin G, reference compound]
physchem
  half-life: 7 min

## CC1(C)S[C@@H]2[C@H](NC(=O)CSC[C@@H](N)C(=O)O)C(=O)N2[C@H]1C(=O)O [RIT D-2214, 6-(D)-{[(2-amino-2-carboxy)-ethylthio]-acetamido}-penicillanic acid]
Corynebacterium xerosis
  MIC: < 0.02 µg/mL
Shigella sonnei
  MIC: 20 µg/mL
Staphylococcus aureus
  MIC: 1.25 µg/mL
[2]
  MIC: 80 µg/mL
Bacillus subtilis
  MIC: 0.3 µg/mL
Escherichia coli
  MIC: 1.25 µg/mL (≈ 3.31 µM)
E. coli Pen. resistant
  MIC: 80 µg/mL
Alcaligenes faecalis
  MIC: 1.6 µg/mL
Aerobacter aerogenes
  MIC: 1.25 µg/mL (≈ 3.31 µM)
Klebsiella pneumoniae
  MIC: 80 µg/mL
Salmonella paratyphi
  MIC: 1.25 µg/mL (≈ 3.31 µM)
Salmonella meleagridis
  MIC: 0.6 µg/mL
Salmonella typhi
  MIC: 0.6 µg/mL (≈ 1.59 µM)
Salmonella typhimurium
  MIC: 40 µg/mL
Salmonella panama
  MIC: 40 µg/mL
Salmonella anatum
  MIC: 0.6 µg/mL
Proteus mirabilis
  MIC: 1.25 µg/mL (≈ 3.31 µM)
Proteus morganii
  MIC: 40 µg/mL
Vibrio el tor
  MIC: 0.6 µg/mL
Brucella abortus
  MIC: 20 µg/mL (≈ 53 µM)
[3]
  MIC: 0.6 µg/mL
Pseudomonas aeruginosa
  MIC: 80 µg/mL
Escherichia coli 47
  ED50: < 10 mg/kg
Escherichia coli 9
  ED50: 10.9 mg/kg
[4]; oral with calcium carbonate
  ED50: 25.3 mg/kg
[4]; sc, s.c.
  ED50: < 11 mg/kg
Proteus mirabilis 11
  ED50: < 10 mg/kg
[5]
  ED50: 13 mg/kg
[6]
  ED50: 13.5 mg/kg
Salmonella panama 20
  ED50: < 10 mg/kg
Shigella flexneri 25
  ED50: 52.5 mg/kg
[7]
  ED50: < 11 mg/kg
[8]
  ED50: 22.7 mg/kg
In vivo [9]
  concentration at 5 min: 13000 ng/mL
  concentration at 0.25 h: 15000 ng/mL
  concentration at 0.5 h: 10000 ng/mL
  concentration at 1 h: 6000 ng/mL
In vivo [10]
  concentration at 5 min: 12000 ng/mL
  concentration at 0.25 h: 23000 ng/mL
  concentration at 0.5 h: 17000 ng/mL
  concentration at 1 h: 12000 ng/mL
  concentration at 2 h: 7500 ng/mL
In vivo [11]
  concentration at 0.25 h: 18000 ng/mL
  concentration at 0.5 h: 23000 ng/mL
  concentration at 1 h: 22500 ng/mL
  concentration at 2 h: 9000 ng/mL
physchem
  stability under acid conditions: relatively stable under acid conditions
  half-life: 25 min
[12]
  stability in water solution: relatively stable
[13]
  destruction by β-lactamase: rapidly destroyed
[1]
  inhibitory activity against the growth of bacteria: exhibits inhibitory activity
[14]; Gram-positive and Gram-negative microorganisms
  in vivo activity: exhibits in vivo activity
[14]; oral
  efficacy when administered orally: less advantageous when administered orally
Alcaligenes viscolactis
  sensitivity of Alcaligenes viscolactis: very high sensitivity

## CC1(C)S[C@@H]2[C@H](NC(=O)CSC[C@@H](N)C(=O)O)C(=O)N2[C@H]1C(=O)O [monoammonium salt of antibiotic RIT D-2214]
[1]
  inhibitory activity against the growth of bacteria: strong activity
